Data from patent US20150141375A1 (priority 2009, published 2015).
“And” between values parts separate entries of the source, which are not always exact repeats. Identical values can stand only once. “Also recorded” adds a separate entry of the source.

How the values were obtained:
[1] = system: vaccinia virus; format: in vivo, human; settings: detectable while on ST-246 and VIG
[2] = system: EBV; assay: In vitro potency against dsDNA viruses: EBV; format: cell-based
[3] = system: BKV(Dunlop); assay: BKV(Dunlop) replication in primary human RPTECs (qPCR, RT-qPCR, western blot, immunofluorescence); format: cell-based, BK virus; settings: for antiviral activity of stored stock compared to freshly prepared drug: tested at 0.31 uM
Experimental: RPTECs were infected with BKV(Dunlop). CMX001 was added before and 2 h postinfection (hpi). Cells and supernatants were harvested 24-72 hpi. BKV replication was examined by TaqMan assays, western blotting, IF staining and viability of RPTECs was examined by WST-1 assay, BrdU incorporation and a TaqMan assay.
Primary human renal proximal tubule epithelial cells (RPTECs), BKV(Dunlop) and all methods as previously described by Bernhoff et al (See Bernhoff et al., Cidofovir inhibits polyomavirus BK replication in human renal tubular cells downstream of viral early gene expression, Am J Transplant 8, 1413-1422 (2008).) Only one exception, quantitative PCR (qPCR) to quantify intracellular or extracellular BKV DNA load was performed with a different primer/probe set also targeting the LTag gene (See Hirsch, et al., J. Prospective study of polyomavirus type BK replication and nephropathy in renal-transplant recipients, N Engl J Med., 347, 488-496 (2002)). Before each experiment, CMX001 was freshly dissolved to 1 mg/ml in methanol/water/ammonium hydroxide (50/50/2). It was further diluted in RPTEC growth medium.
Before each experiment, CMX001 was freshly dissolved to 1 mg/ml in methanol/water/ammonium hydroxide (50/50/2) and further diluted in RPTEC growth medium. About 50% confluent RPTECs were infected with BKV (Dunlop) MOI 1. After 2 h incubation at 37° C., the virus was replaced with fresh medium with or without CMX001 unless otherwise stated.
At 24, 48 and 72 hpi cells were lysed and total RNA extracted using the mirVana PARIS kit (Ambion). RNA samples were treated with DNase turbo (Ambion) to remove residual DNA before the RNA quality was checked by agarose gel electrophoresis and RNA concentration was determined. cDNA was generated from 250 ng RNA per sample using the High Capacity cDNA kit (Applied Biosystems).
To assay extracellular BKV loads, cell culture supernatants were harvested at 24, 48 and 72 hpi and frozen in −70° C. until automatic extraction by a robot (GenoM-48, Qiagen, www.qiagen.com). For intracellular BKV loads, cells were washed, trypsinized and pelleted at 220 g for 10 min, resuspended in G2 buffer from the MagAttract DNA Mini M48 kit (Qiagen) and frozen at −70° C. until extraction with the same robot.
To quantify intracellular or extracellular BKV DNA load, a quantitative PCR (qPCR) with primers and probe targeting the large T-antigen (LT-ag) gene was used. For normalization of intracellular BKV DNA each sample was analyzed in parallel by the qPCR for the gene for aspartoacylase (ACY) to correct for cellular DNA.
Cells were lysed in Cell Disruption buffer (mirVana PARIS kit, Ambion) 24, 48 and 72 hpi and stored at −70° C. until separation with SDS polyacrylamidegel electrophoresis (SDS-PAGE) followed by blotting onto PVDF membrane. Detection of BKV and cellular proteins was performed with polyclonal rabbit antiserum directed against LT-ag (1:2000), VP1 (1:10000), or agno (1:10000) (1, 27) and a monoclonal mouse antibody directed against GAPDH (Ab8245; 1:5000, Abcam, www.abcam.com) followed by anti-rabbit and anti-mouse infrared dye-labeled secondary antibodies (IR Dye 800, Rockland, www.rockland-inc.com and Alexa Fluor 680, Invitrogen, www.invitrogen.com) both 1:5000 before detection with Licor Odyssey Infrared detection system.
Cells were washed in PBS, methanol fixed, blocked with 3% goat-serum in PBS for 30 min, followed by subsequently incubation with primary (37° C.) and secondary (r.t.) antibodies for 30 min. Primary antibodies were monoclonal anti-SV40 LT-ag antibody (Ab-2 Pab416; 1:100, Chemicon, www.chemicon.com) and polyclonal rabbit antiserum directed against agno or VP1 (both 1:1000). The secondary antibodies were anti-mouse conjugated with AlexaFluor 568 and anti-rabbit conjugated with AlexaFluor 488 (1:500; Molecular Probes, www.invitrogen.com). Nuclei were labeled with DRAQ5™ (Biostatus, www.biostatus.com). […]

[4] = system: JCV; assay: First fifteen EIND patients: JCV; format: in vivo, human; settings: one patient
[5] = system: BK Virus; settings: has been reported; read-out: EC50 for BK virus infection; cited from earlier work
[6] = system: HSV-2, strain MS; assay: Mortality of BALB/c mice infected intranasally with HSV-2, strain MS; format: in vivo
Experimental: Animals: BALB/c, female mice, 3-4 weeks of age.
Treatments were administered to mice for 7 consecutive days beginning 72 hr post viral inoculation by oral gavage using a 0.2 ml volume. CMX001 was administered once daily and ACV was given twice daily at approximately 12 hr intervals.
Mortality rates analyzed by Fisher's exact test; Mean day of death (MDD) by Mann-Whitney U rank sum.

[7] = system: ADV; assay: EIND patients previously treated with other antivirals: ADV; format: in vivo, human; settings: EIND 108104
Experimental: A further study has been conducted on patients with various viral infections and diseases associated with virus.
As shown in Table 5(b), all patients that have been previously treated with other antiviral agents for example cidofovir. […] After these patients are treated with CMX001, the patients show significant improvements.

[8] = system: CMV; settings: human, in vivo

CCCCCCCCCCCCCCCCOCCCOP(=O)(O)CO[C@H](CO)Cn1ccc(N)nc1=O [CMX001, Hexadecyloxypropyl-cidofovir]
viable vaccinia in lesions [1]: Eliminated | Enhanced Activity ([2]; CMX001 versus cidofovir EC50): >4250 | EC50 ([2]; human gammaherpesvirus 4, Dardi): 40 nM | BKV-infected cells, immunofluorescence ([3]; 10 μM CMX001, 72 hpi): no BKV-infected cell was observed | IC90 ([3]; Betapolyomavirus hominis, RPTEC, RPTECs, 72 h p.i., viral input subtracted, read-out: IC90, extracellular BKV load): 310 nM | reduction of late protein expression ([3]; CMX001 0.31 μM): about 70% | reduction of BKV load at 96 hpi ([3]; CMX001 0.31 μM for 24 h): approximately 90% | effect on early gene (LT-ag) expression ([3]; CMX001 0.31 μM, 24 hpi): no effect; also recorded: No difference | reduction of late gene expression ([3]; CMX001 0.31 μM, 48 and 72 hpi): 70-90% | reduction of BKV DNA replication (intracellular BKV load) ([3]; CMX001 0.31 μM, 48 hpi): 94% and 90% | reduction of LT-ag mRNA ([3]; CMX001 0.31 μM, 48 hpi): 33% | reduction of agno, western blotting ([3]; CMX001 0.31 μM, 48 hpi): 97% | reduction of late mRNA levels ([3]; CMX001 0.31 μM, 48 hpi): 93% | reduction of BKV DNA replication (intracellular BKV load) ([3]; CMX001 0.31 μM, 72 hpi): 63% and 91% | reduction of LT-ag mRNA ([3]; CMX001 0.31 μM, 72 hpi): 64% | reduction of agno, western blotting ([3]; CMX001 0.31 μM, 72 hpi): 96% | reduction of late mRNA levels ([3]; CMX001 0.31 μM, 72 hpi): 82% | decrease of VP1, western blotting ([3]; CMX001 0.31 μM, 48 h p.i.): 86% and 85% | reduction of LTag staining ([3]; CMX001 0.31 μM, 48 h p.i.): 33% | decrease of VP1, western blotting ([3]; CMX001 0.31 μM, 72 h p.i.): 63% and 96% | reduction of LTag staining ([3]; CMX001 0.31 μM, 72 h p.i.): 30% | decrease in BKV agnoprotein expressing cells ([3]; CMX001 0.31 uM, immunofluorescence 72 h p.i.): approximately 60% | exposure time for IC-90 of BKV progeny loads at 96 hpi ([3]; CMX001 0.31 μM, CDV 40 μg/mL): 24 h | reduction of viral load by pre-treatment ([3]; pre-treatment 23-24 h until one hour before infection, BKV load 72 h p.i.): about 50% | effect of pre-treatment on BKV load ([3]; pre-treatment 4 hours, ending 20 hours before infection): hardly any effect; also recorded: did not inhibit BKV replication | antiviral activity of stored stock compared to freshly prepared drug ([3]; stock 1 mg/ml one week at 4° C.): less than 60% | antiviral activity of stored stock compared to freshly prepared drug ([3]; stock 1 mg/ml one week at −20° C.): approximately 90% | JCV in cerebrospinal fluid (CSF) and urine [4]: became undetectable | EC50 [5]: 140 nM | MDD ([6]; CMX001 0.125 mg/kg): 9.0 ± 1.0 | Mortality Number ([6]; CMX001 0.125 mg/kg): 13/15 | Mortality Percent ([6]; CMX001 0.125 mg/kg): 87% | MDD ([6]; CMX001 0.42 mg/kg): 9.8 ± 2.6 | Mortality Number ([6]; CMX001 0.42 mg/kg): 12/15 | Mortality Percent ([6]; CMX001 0.42 mg/kg): 80% | MDD ([6]; CMX001 1.25 mg/kg): 9.4 ± 2.9 | Mortality Number ([6]; CMX001 1.25 mg/kg): 9/15 | Mortality Percent ([6]; CMX001 1.25 mg/kg): 60% | AdV viruria rebound, distance from baseline [7]: within 0.7 log10 from baseline. | hemorrhagic cystitis [7]: cystitis improved. | initial decline of AdV viruria [7]: 2.8 log10 decline, but it rebounded to | serious adverse events [8]: No trends were observed in serious adverse events
